Results as given in ChEMBL document CHEMBL1141850, “Glucosidation of betulinic acid by Cunninghamella species” (1999).
Values after ≈ are worked out from the molar mass of the structure shown.

Columns and labels:
Type in all cases: functional
Details in all cases: read-out: ED50 (the source's name)
[1] = Cytotoxicity against human MEL1 cells
[2] = Cytotoxicity against human MEL2 cells
[3] = Cytotoxicity against human MEL3 cells
[4] = Cytotoxicity against human MEL7 cells

SMILES | EC50 [1] [µg/mL] | EC50 [2] [µg/mL] | EC50 [3] [µg/mL] | EC50 [4] [µg/mL]
C=C(C)[C@@H]1CC[C@]2(C(=O)O[C@@H]3O[C@H](CO)[C@@H](O)[C@H](O)[C@H]3O)CC[C@]3(C)[C@H](CC[C@@H]4[C@@]5(C)CC[C@H](O)C(C)(C)[C@@H]5CC[C@]43C)[C@@H]12 | > 20 | > 20 | > 20 | > 20
C=C(C)[C@@H]1CC[C@]2(C(=O)O)CC[C@]3(C)[C@H](CC[C@@H]4[C@@]5(C)CC[C@H](O)C(C)(C)[C@@H]5CC[C@]43C)[C@@H]12 [BETULINIC ACID] | 1.4 (≈ 3.07 µM) | 1.2 (≈ 2.63 µM) | 1.8 (≈ 3.94 µM) | 4.4 (≈ 9.63 µM)
